Experimental data as given in patent US20220010019A1, “Targeting intraepithelial lymphocytes for treatment of metabolic syndrome” (The General Hospital Corporation, priority 2018, published 2022).

System: Ldlr−/− mice
Test: Atherosclerotic lesion quantification in HCD-fed Ldlr−/− mice, Glp1r agonist treatment
Type: in vivo
Conditions: 8 weeks on HCD, 100 μg per kg per day via osmotic minipumps, vs PBS
Procedure: Glp1r agonist treatment. Ldlr−/− mice were treated with the Glp1r agonist exendin-4 (Abcam) at a dose of 100 μg per kg per day via osmotic minipumps (Alzet). After 8 weeks on a HCD, mice were euthanized for atherosclerotic lesion quantification.
Adipose tissue. iWAT and pWAT were excised, fixed in 10% formalin solution and paraffin-embedded. Haematoxylin and eosin staining was performed to assess overall tissue morphology. The adipocyte size distribution was determined with the NIH ImageJ program. Aortas. Aortic roots were dissected, embedded in Tissue-Tek OCT compound (Sakura Finetek) and frozen in 2-methylbutane (Fisher Scientific) cooled with dry ice. For comparisons of lesion sizes between the groups, sections with the maximum lesion area were used. To measure lesion volume, sections were collected at the first appearance of the aortic valves until lesions were no longer visible. Oil red O staining (Sigma-Aldrich) was performed to visualize lipid content and the lesion size was measured. To quantify lesion macrophage and smooth muscle cell content, immunohistochemistry was performed with anti-CD68 (BioLegend) and anti-Myh11 (Millipore) antibodies. […] To quantify collagen content, Masson trichrome staining (Sigma-Aldrich) was performed.

exendin-4 was tested, and the “atherosclerosis (plaque size, oil-red O-stained aortas)” value was “attenuated atherosclerosis”.
